The target in the experiment is T1, hASIC1a (Homo sapiens, UniProt P78348).
T1 sequence (P78348 1-528): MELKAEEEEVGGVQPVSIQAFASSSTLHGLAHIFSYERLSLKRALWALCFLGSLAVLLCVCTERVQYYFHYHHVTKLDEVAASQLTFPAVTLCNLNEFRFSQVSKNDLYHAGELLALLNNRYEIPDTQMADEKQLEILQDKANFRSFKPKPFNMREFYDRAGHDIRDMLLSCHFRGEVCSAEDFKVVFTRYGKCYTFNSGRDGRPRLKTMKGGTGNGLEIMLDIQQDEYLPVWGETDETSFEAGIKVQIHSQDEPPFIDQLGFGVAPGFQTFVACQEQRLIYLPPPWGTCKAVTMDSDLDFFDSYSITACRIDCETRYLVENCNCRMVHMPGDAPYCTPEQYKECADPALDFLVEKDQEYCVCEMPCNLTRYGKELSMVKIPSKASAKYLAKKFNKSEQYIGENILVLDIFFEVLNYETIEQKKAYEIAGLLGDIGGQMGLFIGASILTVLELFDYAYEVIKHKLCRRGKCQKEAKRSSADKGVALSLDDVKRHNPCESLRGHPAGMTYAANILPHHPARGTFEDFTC
As to the kind of experiment: Calcium-imaging (FLIPR, Fluo-4) of acid (MES)-induced calcium response in ASIC1a expressing HEK293 cells. The experiment is classed as cell-based. On the set-up: expressed in transfected cells; host or cells: HEK293. To be noted: calcium mobilization assay, MES-induced calcium response, HEK293, n=3-7. On the procedure: ASIC1a expressing HEK293 cells are grown in culture medium (DMEM with 10% FBS), in polystyrene culture flasks ([…]) at 37° C. in a humidified atmosphere of 5% CO2. Confluency of cells should be 80-90% on day of plating. Cells are rinsed with 10 ml of PBS and re-suspended by addition of culture medium and trituration with a 25 ml pipette.
The cells are seeded at a density of approximately 1×10^6 cells/ml (100 μl/well) in black-walled, clear bottom, 96-well plates pre-treated with 10 mg/l poly-D-lysin (75 μl/well for ≧30 min). Plated cells were allowed to proliferate for 24 h before loading with dye.
Fluo-4/AM (1 mg, Molecular Probes) is dissolved in 912 μl DMSO. The Fluo-4/AM stock solution (1 mM) is diluted with culture medium to a final concentration of 2 μM (loading solution).
The culture medium is aspirated from the wells, and 50 μl of the Fluo-4/AM loading solution is added to each well. The cells are incubated at 37° C. for 30 min.
After the loading period, the loading solution is aspirated and the cells are washed twice with 100 μl modified Assay Buffer (145 mM NaCl, 5 mM KCl, 5 mM CaCl2, 1 mM MgCl2, 10 mM HEPES, pH 7.4) to remove extracellular dye. Following the second wash, 100 μl modified Assay Buffer is added to each well and the fluorescence is measured in FLIPR™ or FlexStation™ (Molecular Devices, USA), or any other suitable equipment known to the skilled in the art.
Temperature: Room temperature (20-22° C.)
First addition: 50 μl test solution at a rate of 30 μl/sec and a starting height of 100 μl.
Second addition: 50 μl MES solution (20 mM, 5 mM final concentration) at a rate of 35 μl/sec and a starting height of 150 μl.
Reading intervals: pre-incubation—10 sec×7 and 3 sec×3 antagonist phase—3 sec×17 and 10 sec×12
Addition plates (compound test plate and MES plate) are placed on the right and left positions in the FLIPR tray, respectively. Cell plates are placed in the middle position and the ASIC1a program is effectuated. FLIPR will then take the appropriate measurements in accordance with the interval settings above. Fluorescence obtained after stimulation is corrected for the mean basal fluorescence (in modified Assay Buffer).
The MES-induced peak calcium response, in the presence of test substance, is expressed relatively to the MES response alone. Test substances that block the MES-induced calcium response are re-tested in triplicates. Confirmed hits are picked for further characterization by performing full dose-response curves to determine potency of each hit compound as represented by the IC50 values (i.e., the concentration of the test substance which inhibits 50% of the MES-induced calcium response; see, for example, FIGS. 1A, 1B and 1C, and FIGS. 13A and 13B).
In general terms: A change in cytosolic calcium serves as a functional read-out for many receptors and channels.

SMILES strings stand for the structures.

The IC50 is the concentration that gives 50% inhibition. In the case of `COc1ccc(F)cc1-c1cc2c(c3c1CCN(C)C3)NC(=O)/C2=N/O` [Compound A, 5-(5-fluoro-2-methoxyphenyl)-6,7,8,9-tetrahydro-3-(hydroxyimino)-8-methyl-1H-pyrrolo[3,2-h]isoquinoline-2(3H)-one], the IC50 fell in the range of 0.1 to 0.2 µM.
The value for `CCN1CCc2c(-c3ccccc3)cc3c(c2C1)NC(=O)/C3=N/O` [Compound H, 5-phenyl-6,7,8,9-tetrahydro-3-(hydroxyimino)-8-ethyl-1H-pyrrolo[3,2-h]isoquinoline-2(3H)-one] was 0.015 to 0.25 µM.

For the origin of these results see US7718641B2, “Pyrrolo [3,4-H] isoquinoline compounds and methods for modulating gated ion channels” (Aros Pharma ApS, priority 2005, dated 2010).
